Patent publication US3965151A, “Intermediates for tricyclic benzodiazepines” (Hoffmann-La Roche Inc., priority 1975, dated 1976)

What was measured:
Format in all cases: in vivo
mice [1] = assay: Foot Shock (blocking of foot shock-induced fighting in pairs of mice); settings: oral, 1 hour prior to second shocking, three out of three pairs blocked from fighting
Description: This test is a screen for compounds having muscle relaxant and/or anti-anxiety (tranquilizer) activity. A pair of mice is confined under a 1 liter beaker placed on a grid which presents shock to the feet. At least five fighting episodes are elicited in a 2-minute period. Pairs of mice are marked and pretreated by oral dosage 1 hour prior to a second shocking. Logarithmic-dose intervals are utilized up to a maximum of 100 mg/kgm. At the 100 per cent blocking dose, three out of three pairs must be blocked from fighting.

mice [2] = assay: Antimetrazol (protection from metrazol-induced convulsive seizures); settings: Mus musculus, oral, 1 hour before metrazol ~125 mg/kg s.c., 50 per cent of animals protected from convulsive seizures, read-out: Antimetrazole ED50
Description: This test determines anticonvulsant and/or sedative activity of compounds in mice. The test compound is administered orally to groups of four mice at various dose levels. One hour later, metrazol (at a dose level previously determined to be sufficient to induce convulsive seizures in all test animals ~125 mg/kg.) is administered subcutaneously and the animals are observed for protection from convulsive seizures. Results are recorded as the number of animals protected against convulsions. The dose at which 50 per cent of the animals are protected from convulsive seizures is expressed as the ED50.

mice [3] = assay: Inclined Screen (paralyzing effects, muscle relaxant and/or sedative activity); settings: Mus musculus, 4 h; male mice, at least four hours observation; dose expected to cause 50 per cent of mice to slide off the screen; read-out: Inclined Screen PD50
Description: The test is useful in determining muscle relaxant and/or sedative activity. Groups of six male mice are given the test drug (maximum dose of 500 mg/kg.) and then are left on the inclined screen at least four hours for observation of paralyzing effects severe enough to cause them to slide off the screen. If activity is observed, additional doses are tested until at least two are reached at which some, but not all the animals slide off the screen. Doses at which mice fall off the screen due to toxicity or excitation are not included in the calculation of PD50. The PD50 is determined from a graph on which dose is plotted against per cent of mice paralyzed. This PD50 value is defined as the dose in mg/kg. which can be expected to cause 50 per cent of mice to slide off the screen.

Cats = assay: Unanesthetized Cat (minimum symptoms, usually ataxia; muscle relaxant activity); settings: Felis catus, oral, read-out: Unanesthetized Cat MED
Description: Cats are treated orally and observed for minimum symptoms--usually ataxia. One cat is used at a dose of 50 mgm/kgm. If activity is present, up to three cats/dose are used. Results are given as minimum effective dose. This test is useful in determining muscle relaxant activity.

O=C1CN2CCOC2(c2ccccc2F)c2cc(Cl)ccc2N1CCO (stereo not shown) [Compound B, 10-Chloro-11b-(2-fluorophenyl)-7-(2-hydroxyethyl)-2,3,5,11b-tetrahydrooxazolo[3,2-d][1,4]benzodiazepin-6(7H)-one]
Footshock 100% Blocking Dose Level (mice [1]): 4 mg | ED50 (mice [2]): 2.03 mg/kg | ED50 (mice [3]): 15 mg/kg | minimal effective dose (Cats): 5 mg/kg

O=C1CN2CCOC2(c2ccccc2)c2cc(Cl)ccc2N1CCO (stereo not shown) [Compound A, 10-chloro-7-(2-hydroxyethyl)-2,3,5,11b-tetrahydro-11b-phenyloxazolo[3,2-d][1,4]benzodiazepin-6-(7H)-one]
Footshock 100% Blocking Dose Level (mice [1]): 20 mg | ED50 (mice [3]): 50 mg/kg | minimal effective dose (Cats): 5 mg/kg
